Measurements: US6593343B2, “Quinoline derivatives” (Active Biotech AB, priority 1998, dated 2003)

Experiments:
fetuses of female rats [1] = assay: Teratogenic effects in the rat; assay type: in vivo
beagle dogs = assay: Beagle Pain Syndrome (BPS); assay type: in vivo, dog
Procedure: Beagle Pain Syndrome (BPS)
The compounds were administrated intravenously to beagle dogs. The dosage was given for five consecutive days. The dogs were evaluated for clinical and laboratory signs of the pain syndrome, e.g. fever, increased erythrocyte sedimentation rate (ESR), alkaline phosphate (AP), induction of acute phase proteins and vasculitis.

fetuses of female rats [2] = conditions: rat, background statement; cited from earlier work
[3] = e.g. a flu-like syndrome; cited from earlier work
[4] = tested on: acute experimental autoimmune encephalomyelitis (aEAE); assay: Acute experimental autoimmune encephalomyelitis (aEAE) inhibition; assay type: in vivo; conditions: at ≧5 mg/kg, mice, treatment control

COc1cccc2c1c(O)c(C(=O)N(C)c1ccc(C(F)(F)F)cc1)c(=O)n2C [Compound A, N-methyl-N-(4-trifluoromethyl-phenyl)-1,2-dihydro-4-hydroxy-5-methoxy-1-methyl-2-oxo-quinoline-3-carboxamide]
% malformed fetuses (fetuses of female rats [1]; 6 mg/kg p.o.): 4%
% malformed fetuses (fetuses of female rats [1]; 30 mg/kg p.o.): 2%

CN(C(=O)c1c(O)c2c(Cl)cccc2n(C)c1=O)c1ccc(F)cc1F [Compound B, N-methyl-N-(2,4-difluoro-phenyl)-1,2-dihydro-4-hydroxy-5-chloro-1-methyl-2-oxo-quinoline-3-carboxamide]
% malformed fetuses (fetuses of female rats [1]; 6 mg/kg p.o.): 0%

CN(C(=O)c1c(O)c2c(Cl)cccc2n(C)c1=O)c1ccccc1 [Compound C, N-Methyl-N-phenyl-1,2-dihydro-4-hydroxy-5-chloro-1-methyl-2-oxo-quinoline-3-carboxamide]
% malformed fetuses (fetuses of female rats [1]; 6 mg/kg p.o.): 37%

CN(C(=O)c1c(O)c2ccccc2n(C)c1=O)c1ccccc1 [Compound D, N-phenyl-N-methyl-1,2-dihydro-4-hydroxy-1-methyl-2-oxo-quinoline-3-carboxamide]
Beagle Pain Syndrome (in words) (beagle dogs): induce the Beagle Pain Syndrome
teratogenicity (in words) (fetuses of female rats [2]): teratogenic in the rat
side effects in man (in words) [3]: dose-limiting side effects
inhibition of aEAE [4]: more than 50%
% malformed fetuses (fetuses of female rats [1]; 10 mg/kg p.o.): 9%
% malformed fetuses (fetuses of female rats [1]; 30 mg/kg p.o.): 30%
